Experimental findings from patent publication US11001590B2, “Pyrazolopyrimidine derivatives” (BAYER ANIMAL HEALTH GMBH, priority 2016, dated 2021) are described below.

Bounds are passed on as bounds.

The test system of the first data set is Nippostrongylus brasiliensis. Kind of data set: In vitro assay 2: Nippostrongylus brasiliensis (NIPOBR), acetylcholine esterase readout. To be noted: adult worms, 1 μg/ml (1 ppm), read-out: activity (reduction of AChE compared to negative control). An outline of the steps: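 Adult worms were washed in saline with antibiotics/antimycotic, then incubated with compound at 10 μg/ml (10 ppm) or 1 μg/ml (1 ppm) final, from DMSO stock. Acetylcholine esterase activity in a medium aliquot, compared with a negative control, served as the anthelmintic readout.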
For the compound `Cc1nn2c(C(C)C)c(C(=O)N[C@H]3CCOc4ccccc43)cnc2c1-c1cccc2c1CCN2C` [Example 461], the inhibition at 1 µg/mL was greater than 80%.

Regarding `Cc1nn2c(C(C)C)c(C(=O)N[C@H]3CCOc4ccccc43)cnc2c1-c1c(F)ccc(Cl)c1F` [Example 255], the inhibition at 1 µg/mL was greater than 80%.

Take `Cc1nn2c(N(C)C)c(C(=O)N[C@H]3CCOc4ccccc43)cnc2c1-c1cccc(Cl)c1Cl` [Example 518]: the inhibition at 1 µg/mL was greater than 80%.

For the compound `Cc1nn2c(N3CCOCC3)c(C(=O)N[C@H]3CCOc4ccccc43)cnc2c1-c1cccc(Cl)c1Cl` [Example 517], the inhibition at 1 µg/mL is greater than 80%.

On to `COc1c(F)cc(F)c(-c2c(C)nn3c(N4CCOCC4)c(C(=O)N[C@H]4CCOc5ccccc54)cnc23)c1F` [Example 531], for which the inhibition at 1 µg/mL is greater than 80%.

For the compound `Cc1nn2c(C3CC3)c(C(=O)N[C@H]3CCc4ccccc43)cnc2c1-c1c(F)ccc(Cl)c1F` [Example 436], the inhibition at 1 µg/mL was greater than 80%.

`COc1c(F)ccc(-c2c(C)nn3c(C(C)C)c(C(=O)N[C@H]4CCOc5ccccc54)cnc23)c1F` [Example 192]: the inhibition at 1 µg/mL was greater than 80%.

Still in this data set, the particulars now being: adult worms, 10 μg/ml (10 ppm), read-out: activity (reduction of AChE compared to negative control).
`Cc1nn2c(C(C)C)c(C(=O)N[C@H]3CCOc4ccccc43)cnc2c1-c1cccc2c1CCN2C` [Example 461]: the inhibition at 10 µg/mL was greater than 80%.

`Cc1nn2c(C(C)C)c(C(=O)N[C@H]3CCOc4ccccc43)cnc2c1-c1c(F)ccc(Cl)c1F` [Example 255]: the inhibition at 10 µg/mL is greater than 80%.

In the case of `Cc1nn2c(N(C)C)c(C(=O)N[C@H]3CCOc4ccccc43)cnc2c1-c1cccc(Cl)c1Cl` [Example 518], the inhibition at 10 µg/mL was greater than 80%.

Take `Cc1nn2c(N3CCOCC3)c(C(=O)N[C@H]3CCOc4ccccc43)cnc2c1-c1cccc(Cl)c1Cl` [Example 517]: the inhibition at 10 µg/mL is greater than 80%.

As for `Cc1nn2c(C3CC3)c(C(=O)N[C@H]3CCc4ccccc43)cnc2c1-c1c(F)ccc(Cl)c1F` [Example 436], the inhibition at 10 µg/mL was greater than 80%.

On to `COc1c(F)ccc(-c2c(C)nn3c(C(C)C)c(C(=O)N[C@H]4CCOc5ccccc54)cnc23)c1F` [Example 192], for which the inhibition at 10 µg/mL is greater than 80%.

The next data set deals with Dirofilaria immitis microfilariae. Kind of data set: In vitro assay 3: Dirofilaria immitis microfilariae (DIROIM L1), motility. As to conditions: 72 h, reduction of motility vs negative control, 72 h incubation.
As for `Cc1nn2c(C(C)C)c(C(=O)N[C@H]3CCOc4ccccc43)cnc2c1-c1cccc2c1CCN2C` [Example 461], the EC50 (as a rule, the concentration giving half of the maximal effect) was less than 1 µg/mL.

As for `Cc1nn2c(C(C)C)c(C(=O)N[C@H]3CCOc4ccccc43)cnc2c1-c1c(F)ccc(Cl)c1F` [Example 255], the EC50 was less than 0.1 µg/mL.

As for `Cc1nn2c(N(C)C)c(C(=O)N[C@H]3CCOc4ccccc43)cnc2c1-c1cccc(Cl)c1Cl` [Example 518], the EC50 is less than 0.1 µg/mL.

In the case of `Cc1nn2c(N3CCOCC3)c(C(=O)N[C@H]3CCOc4ccccc43)cnc2c1-c1cccc(Cl)c1Cl` [Example 517], the EC50 is less than 0.1 µg/mL.

In turn, `COc1c(F)cc(F)c(-c2c(C)nn3c(N4CCOCC4)c(C(=O)N[C@H]4CCOc5ccccc54)cnc23)c1F` [Example 531] yielded an EC50 of less than 0.1 µg/mL.

As to `Cc1nn2c(C3CC3)c(C(=O)N[C@H]3CCc4ccccc43)cnc2c1-c1c(F)ccc(Cl)c1F` [Example 436], the EC50 was less than 0.1 µg/mL.

For `COc1c(F)ccc(-c2c(C)nn3c(C(C)C)c(C(=O)N[C@H]4CCOc5ccccc54)cnc23)c1F` [Example 192], the EC50 was less than 0.1 µg/mL.

A further data set relates to Dirofilaria immitis third-stage larvae. Kind of data set: In vitro assay 4: Dirofilaria immitis (DIROIM L4), motility of larvae. To be noted: 72 h.
For the compound `Cc1nn2c(C(C)C)c(C(=O)N[C@H]3CCOc4ccccc43)cnc2c1-c1cccc2c1CCN2C` [Example 461], the EC50 was less than 0.1 µg/mL.

With `Cc1nn2c(C(C)C)c(C(=O)N[C@H]3CCOc4ccccc43)cnc2c1-c1c(F)ccc(Cl)c1F` [Example 255], the EC50 is less than 0.1 µg/mL.

`Cc1nn2c(N(C)C)c(C(=O)N[C@H]3CCOc4ccccc43)cnc2c1-c1cccc(Cl)c1Cl` [Example 518] had an EC50 of less than 0.1 µg/mL.

Take `Cc1nn2c(N3CCOCC3)c(C(=O)N[C@H]3CCOc4ccccc43)cnc2c1-c1cccc(Cl)c1Cl` [Example 517]: the EC50 is less than 0.1 µg/mL.

On to `COc1c(F)cc(F)c(-c2c(C)nn3c(N4CCOCC4)c(C(=O)N[C@H]4CCOc5ccccc54)cnc23)c1F` [Example 531], for which the EC50 is less than 0.1 µg/mL.

`Cc1nn2c(C3CC3)c(C(=O)N[C@H]3CCc4ccccc43)cnc2c1-c1c(F)ccc(Cl)c1F` [Example 436] yielded an EC50 of less than 0.1 µg/mL.

`COc1c(F)ccc(-c2c(C)nn3c(C(C)C)c(C(=O)N[C@H]4CCOc5ccccc54)cnc23)c1F` [Example 192]: the EC50 was less than 0.1 µg/mL.

A further data set has as its system Cooperia curticei. Nature of the data set: In vitro assay 5: Cooperia curticei (COOPCU), larval mortality. As to conditions: 120 h, read-out: activity (percentage of larval mortality).
Procedure: In Vitro Assay 5: Cooperia curticei (COOPCU)
Solvent: Dimethyl Sulfoxide
Approximately 40 nematode larvae (Cooperia curticei) are transferred into a test tube containing the compound solution.
After 5 days percentage of larval mortality is recorded. 100% efficacy means all larvae are killed; 0% efficacy means no larvae are killed.
For `Cc1nn2c(C(C)C)c(C(=O)N[C@H]3CCOc4ccccc43)cnc2c1-c1cccc2c1CCN2C` [Example 461], the mortality (in general, the share of the test organisms that died) at 20 ppm was determined as 90%.

For the compound `Cc1nn2c(C(C)C)c(C(=O)N[C@H]3CCOc4ccccc43)cnc2c1-c1c(F)ccc(Cl)c1F` [Example 255], the mortality at 20 ppm turned out to be 90%.

With `Cc1nn2c(N(C)C)c(C(=O)N[C@H]3CCOc4ccccc43)cnc2c1-c1cccc(Cl)c1Cl` [Example 518], the mortality at 20 ppm was found to be 100%.

For the compound `Cc1nn2c(N3CCOCC3)c(C(=O)N[C@H]3CCOc4ccccc43)cnc2c1-c1cccc(Cl)c1Cl` [Example 517], the mortality at 20 ppm came to 100%.

Regarding `COc1c(F)cc(F)c(-c2c(C)nn3c(N4CCOCC4)c(C(=O)N[C@H]4CCOc5ccccc54)cnc23)c1F` [Example 531], the mortality at 20 ppm amounted to 100%.

On to `Cc1nn2c(C3CC3)c(C(=O)N[C@H]3CCc4ccccc43)cnc2c1-c1c(F)ccc(Cl)c1F` [Example 436], for which the mortality at 20 ppm worked out at 80%.

On to `COc1c(F)ccc(-c2c(C)nn3c(C(C)C)c(C(=O)N[C@H]4CCOc5ccccc54)cnc23)c1F` [Example 192], for which the mortality at 20 ppm turned out to be 100%.

A further data set deals with Litomosoides sigmodontis third-stage larvae. Kind of data set: In vitro assay 7: Litomosoides sigmodontis L3 (LTMOSI), motility. To be noted: 72 h, reduction of motility vs negative control, 72 h incubation.
For `Cc1nn2c(C(C)C)c(C(=O)N[C@H]3CCOc4ccccc43)cnc2c1-c1cccc2c1CCN2C` [Example 461], the EC50 was less than 0.1 µg/mL.

Consider `Cc1nn2c(C(C)C)c(C(=O)N[C@H]3CCOc4ccccc43)cnc2c1-c1c(F)ccc(Cl)c1F` [Example 255], for which the EC50 is less than 0.1 µg/mL.

Consider `Cc1nn2c(N(C)C)c(C(=O)N[C@H]3CCOc4ccccc43)cnc2c1-c1cccc(Cl)c1Cl` [Example 518], for which the EC50 was less than 0.1 µg/mL.

Take `Cc1nn2c(N3CCOCC3)c(C(=O)N[C@H]3CCOc4ccccc43)cnc2c1-c1cccc(Cl)c1Cl` [Example 517]: the EC50 was less than 0.1 µg/mL.

For the compound `COc1c(F)cc(F)c(-c2c(C)nn3c(N4CCOCC4)c(C(=O)N[C@H]4CCOc5ccccc54)cnc23)c1F` [Example 531], the EC50 is less than 0.1 µg/mL.

In turn, `Cc1nn2c(C3CC3)c(C(=O)N[C@H]3CCc4ccccc43)cnc2c1-c1c(F)ccc(Cl)c1F` [Example 436] registered an EC50 of less than 0.1 µg/mL.

Consider `COc1c(F)ccc(-c2c(C)nn3c(C(C)C)c(C(=O)N[C@H]4CCOc5ccccc54)cnc23)c1F` [Example 192], for which the 50% effective concentration (EC50) was less than 0.1 µg/mL.

In a further data set the test system is Haemonchus contortus. Kind of data set: In vitro assay 6: Haemonchus contortus (HAEMCO), larval mortality. To be noted: Haemonchus contortus, 120 h, read-out: activity (percentage of larval mortality).
Procedure: In Vitro Assay 6: Haemonchus contortus (HAEMCO)
Solvent: dimethyl sulfoxide
Approximately 40 larvae of the red stomach worm (Haemonchus contortus) are transferred into a test tube containing compound solution.
After 5 days the percentage of larval mortality is recorded. 100% efficacy means all larvae are killed, 0% efficacy means no larvae are killed.
As to `Cc1nn2c(C(C)C)c(C(=O)N[C@H]3CCOc4ccccc43)cnc2c1-c1cccc2c1CCN2C` [Example 461], the mortality at 20 ppm was found to be 80%.

Consider `Cc1nn2c(C(C)C)c(C(=O)N[C@H]3CCOc4ccccc43)cnc2c1-c1c(F)ccc(Cl)c1F` [Example 255], for which the mortality at 20 ppm worked out at 90%.

In the case of `Cc1nn2c(N(C)C)c(C(=O)N[C@H]3CCOc4ccccc43)cnc2c1-c1cccc(Cl)c1Cl` [Example 518], the mortality at 20 ppm is 100%.

In the case of `Cc1nn2c(N3CCOCC3)c(C(=O)N[C@H]3CCOc4ccccc43)cnc2c1-c1cccc(Cl)c1Cl` [Example 517], the mortality at 20 ppm was 100%.

Consider `COc1c(F)cc(F)c(-c2c(C)nn3c(N4CCOCC4)c(C(=O)N[C@H]4CCOc5ccccc54)cnc23)c1F` [Example 531], for which the mortality at 20 ppm was 100%.

In the case of `Cc1nn2c(C3CC3)c(C(=O)N[C@H]3CCc4ccccc43)cnc2c1-c1c(F)ccc(Cl)c1F` [Example 436], the mortality at 20 ppm turned out to be 80%.

`COc1c(F)ccc(-c2c(C)nn3c(C(C)C)c(C(=O)N[C@H]4CCOc5ccccc54)cnc23)c1F` [Example 192]: the mortality at 20 ppm was 90%.

Test system in a further data set: not listed separately
Kind of data set: log P by HPLC on reversed phase columns (Method L0; [a] acidic, [b] neutral range).
Conditions: not given
In the case of `Cc1nn2c(C(C)C)c(C(=O)N[C@H]3CCOc4ccccc43)cnc2c1-c1cccc2c1CCN2C` [Example 461], the chromatographic logP (as a rule, a lipophilicity value derived from retention on a column) was found to be 4.11.

`Cc1nn2c(C(C)C)c(C(=O)N[C@H]3CCOc4ccccc43)cnc2c1-c1c(F)ccc(Cl)c1F` [Example 255] showed a chromatographic logP of 4.72.

As for `Cc1nn2c(N(C)C)c(C(=O)N[C@H]3CCOc4ccccc43)cnc2c1-c1cccc(Cl)c1Cl` [Example 518], the chromatographic logP came to 3.94.

For `Cc1nn2c(N3CCOCC3)c(C(=O)N[C@H]3CCOc4ccccc43)cnc2c1-c1cccc(Cl)c1Cl` [Example 517], the chromatographic logP is 3.51.

`COc1c(F)cc(F)c(-c2c(C)nn3c(N4CCOCC4)c(C(=O)N[C@H]4CCOc5ccccc54)cnc23)c1F` [Example 531]: the chromatographic logP was found to be 2.88.

`Cc1nn2c(C3CC3)c(C(=O)N[C@H]3CCc4ccccc43)cnc2c1-c1c(F)ccc(Cl)c1F` [Example 436] yielded a chromatographic logP of 4.18.

Regarding `COc1c(F)ccc(-c2c(C)nn3c(C(C)C)c(C(=O)N[C@H]4CCOc5ccccc54)cnc23)c1F` [Example 192], the chromatographic logP is 4.32.

The target of the next data set is C. elegans Slo-1a (Caenorhabditis elegans, UniProt Q95V25). Nature of the data set: In vitro assay 1: C. elegans Slo-1a, action at a recombinant C. elegans CHO cell line (membrane potential measurement).
Chain of C. elegans Slo-1a (Q95V25 whole entry): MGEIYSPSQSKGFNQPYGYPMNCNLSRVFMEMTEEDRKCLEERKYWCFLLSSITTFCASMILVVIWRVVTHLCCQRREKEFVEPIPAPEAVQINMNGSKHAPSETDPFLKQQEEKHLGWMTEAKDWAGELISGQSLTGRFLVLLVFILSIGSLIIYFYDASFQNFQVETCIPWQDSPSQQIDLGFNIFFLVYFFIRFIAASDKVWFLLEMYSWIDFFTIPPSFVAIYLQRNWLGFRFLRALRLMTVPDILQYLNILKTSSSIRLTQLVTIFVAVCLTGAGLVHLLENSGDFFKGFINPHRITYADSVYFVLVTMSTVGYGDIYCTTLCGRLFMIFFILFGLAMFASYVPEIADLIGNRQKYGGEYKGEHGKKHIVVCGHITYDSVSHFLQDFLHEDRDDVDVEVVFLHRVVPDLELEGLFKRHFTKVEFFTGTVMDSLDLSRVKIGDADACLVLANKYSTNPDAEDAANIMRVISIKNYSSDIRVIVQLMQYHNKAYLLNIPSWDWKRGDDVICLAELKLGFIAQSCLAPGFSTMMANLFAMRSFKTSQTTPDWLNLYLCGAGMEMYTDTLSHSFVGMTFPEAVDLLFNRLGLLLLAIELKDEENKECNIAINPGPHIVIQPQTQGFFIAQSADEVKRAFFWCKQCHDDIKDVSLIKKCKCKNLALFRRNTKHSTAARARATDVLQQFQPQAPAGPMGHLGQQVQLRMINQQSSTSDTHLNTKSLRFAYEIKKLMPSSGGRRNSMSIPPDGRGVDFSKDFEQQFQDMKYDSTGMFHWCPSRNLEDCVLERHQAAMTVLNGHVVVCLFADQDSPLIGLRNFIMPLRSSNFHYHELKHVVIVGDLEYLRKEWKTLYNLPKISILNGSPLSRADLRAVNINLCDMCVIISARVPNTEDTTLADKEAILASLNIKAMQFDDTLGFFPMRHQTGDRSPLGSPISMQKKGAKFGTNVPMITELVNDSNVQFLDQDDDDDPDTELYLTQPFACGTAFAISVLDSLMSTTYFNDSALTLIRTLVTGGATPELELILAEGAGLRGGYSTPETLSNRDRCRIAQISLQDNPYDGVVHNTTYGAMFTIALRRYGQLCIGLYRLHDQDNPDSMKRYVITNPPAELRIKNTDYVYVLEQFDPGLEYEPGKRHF
Conditions: not given
`Cc1nn2c(C(C)C)c(C(=O)N[C@H]3CCOc4ccccc43)cnc2c1-c1cccc2c1CCN2C` [Example 461]: the EC50 is 2 nM.

For the compound `Cc1nn2c(C(C)C)c(C(=O)N[C@H]3CCOc4ccccc43)cnc2c1-c1c(F)ccc(Cl)c1F` [Example 255], the EC50 is 1.58 nM.

On to `Cc1nn2c(N(C)C)c(C(=O)N[C@H]3CCOc4ccccc43)cnc2c1-c1cccc(Cl)c1Cl` [Example 518], for which the EC50 was 1 nM.

In the case of `Cc1nn2c(N3CCOCC3)c(C(=O)N[C@H]3CCOc4ccccc43)cnc2c1-c1cccc(Cl)c1Cl` [Example 517], the concentration giving a half-maximal response (EC50) was 0.631 nM.

Turning to `COc1c(F)cc(F)c(-c2c(C)nn3c(N4CCOCC4)c(C(=O)N[C@H]4CCOc5ccccc54)cnc23)c1F` [Example 531], the EC50 was 1 nM.

`Cc1nn2c(C3CC3)c(C(=O)N[C@H]3CCc4ccccc43)cnc2c1-c1c(F)ccc(Cl)c1F` [Example 436]: the EC50 is 1.58 nM.

Regarding `COc1c(F)ccc(-c2c(C)nn3c(C(C)C)c(C(=O)N[C@H]4CCOc5ccccc54)cnc23)c1F` [Example 192], the EC50 was 0.398 nM.
